# Assay results: PubChem BioAssay (NCI)
#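 Cultured in 96-well plates, cells were exposed to test compound for 48 hours across five concentrations. GI50 marks 50% less growth. TGI is the concentration that stops growth completely.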
# How the values were obtained:
# Assay in all cases: DTP human tumour cell line panel, 48 h
# UACC-257 melanoma = tested on: UACC-257 melanoma
# RPMI-8226 leukemia = tested on: RPMI-8226 leukemia
# HCC-2998 colon = tested on: HCC-2998 colon
# 786-0 renal = tested on: 786-0 renal
# UACC-62 melanoma = tested on: UACC-62 melanoma
# HCT-116 colon = tested on: HCT-116 colon
# TK-10 renal = tested on: TK-10 renal
# OVCAR-5 ovarian = tested on: OVCAR-5 ovarian
# SF-539 CNS = tested on: SF-539 CNS
# SN12C renal = tested on: SN12C renal
# OVCAR-4 ovarian = tested on: OVCAR-4 ovarian
# COLO 205 colon = tested on: COLO 205 colon
# XF 498 CNS = tested on: XF 498 CNS
# ACHN renal = tested on: ACHN renal
# NCI-H460 lung = tested on: NCI-H460 lung
# SF-268 CNS = tested on: SF-268 CNS
# A549 NSCLC = tested on: A549 NSCLC
# SK-MEL-5 melanoma = tested on: SK-MEL-5 melanoma
# CAKI-1 renal = tested on: CAKI-1 renal
# A498 renal = tested on: A498 renal
# NCI-H23 lung = tested on: NCI-H23 lung
# SW-620 colon = tested on: SW-620 colon
# SK-MEL-28 melanoma = tested on: SK-MEL-28 melanoma
# SNB-75 CNS = tested on: SNB-75 CNS
# K-562 leukemia = tested on: K-562 leukemia
# LXFL 529 NSCLC = tested on: LXFL 529 NSCLC
# HL-60(TB) leukemia = tested on: HL-60(TB) leukemia
# MALME-3M melanoma = tested on: MALME-3M melanoma
# SK-MEL-2 melanoma = tested on: SK-MEL-2 melanoma
# DMS 114 small cell lung = tested on: DMS 114 small cell lung
# U251 CNS = tested on: U251 CNS
# KM20L2 colon = tested on: KM20L2 colon
# SR leukemia = tested on: SR leukemia
# NCI-H522 lung = tested on: NCI-H522 lung
# HCT-15 colon = tested on: HCT-15 colon
# CCRF-CEM leukemia = tested on: CCRF-CEM leukemia
# RXF-631 renal = tested on: RXF-631 renal
# KM12 colon = tested on: KM12 colon
# OVCAR-8 ovarian = tested on: OVCAR-8 ovarian
# M19-MEL melanoma = tested on: M19-MEL melanoma
# SF-295 CNS = tested on: SF-295 CNS
# HT29 colon = tested on: HT29 colon
# EKVX NSCLC = tested on: EKVX NSCLC
# UO-31 renal = tested on: UO-31 renal
# HOP-92 NSCLC = tested on: HOP-92 NSCLC
# M14 melanoma = tested on: M14 melanoma
# OVCAR-3 ovarian = tested on: OVCAR-3 ovarian
# HOP-62 NSCLC = tested on: HOP-62 NSCLC
# SNB-19 CNS = tested on: SNB-19 CNS
# SK-OV-3 ovarian = tested on: SK-OV-3 ovarian
# MOLT-4 leukemia = tested on: MOLT-4 leukemia
# DMS 273 small cell lung = tested on: DMS 273 small cell lung
# LOX IMVI melanoma = tested on: LOX IMVI melanoma
# HOP-18 NSCLC = tested on: HOP-18 NSCLC
# IGROV1 ovarian = tested on: IGROV1 ovarian
# RXF 393 renal = tested on: RXF 393 renal
# DLD-1 colon = tested on: DLD-1 colon
# SNB-78 CNS = tested on: SNB-78 CNS
# NCI-H226 lung = tested on: NCI-H226 lung
smiles,measurement,setting,value
Cc1ccc(NC(=O)CC(=O)n2nc(-c3ccccc3)c(N=Nc3ccccc3Cl)c2-c2ccccc2)cc1,GI50,UACC-257 melanoma,> 100 µM
same,TGI,UACC-257 melanoma,> 100 µM
same,GI50,RPMI-8226 leukemia,> 100 µM
same,TGI,RPMI-8226 leukemia,> 100 µM
same,GI50,HCC-2998 colon,> 100 µM
same,TGI,HCC-2998 colon,> 100 µM
same,TGI,786-0 renal,> 100 µM
same,TGI,UACC-62 melanoma,> 100 µM
same,TGI,HCT-116 colon,> 100 µM
same,TGI,TK-10 renal,> 100 µM
same,TGI,OVCAR-5 ovarian,> 100 µM
same,TGI,SF-539 CNS,> 100 µM
same,GI50,SN12C renal,> 100 µM
same,TGI,SN12C renal,> 100 µM
same,TGI,OVCAR-4 ovarian,87.2 µM
same,GI50,COLO 205 colon,> 100 µM
same,TGI,COLO 205 colon,> 100 µM
same,TGI,XF 498 CNS,> 100 µM
same,TGI,ACHN renal,> 100 µM
same,TGI,NCI-H460 lung,> 100 µM
same,GI50,SF-268 CNS,> 100 µM
same,TGI,SF-268 CNS,> 100 µM
same,TGI,A549 NSCLC,> 100 µM
same,TGI,SK-MEL-5 melanoma,> 100 µM
same,TGI,CAKI-1 renal,> 100 µM
same,TGI,A498 renal,> 100 µM
same,TGI,NCI-H23 lung,> 100 µM
same,TGI,SW-620 colon,> 100 µM
same,TGI,SK-MEL-28 melanoma,> 100 µM
same,TGI,SNB-75 CNS,42.1 µM
same,TGI,K-562 leukemia,> 100 µM
same,TGI,LXFL 529 NSCLC,> 100 µM
same,GI50,HL-60(TB) leukemia,93.8 µM
same,TGI,HL-60(TB) leukemia,> 100 µM
same,TGI,MALME-3M melanoma,> 100 µM
same,GI50,SK-MEL-2 melanoma,> 100 µM
same,TGI,SK-MEL-2 melanoma,> 100 µM
same,GI50,DMS 114 small cell lung,> 100 µM
same,TGI,DMS 114 small cell lung,> 100 µM
same,TGI,U251 CNS,> 100 µM
same,GI50,KM20L2 colon,> 100 µM
same,TGI,KM20L2 colon,> 100 µM
same,TGI,SR leukemia,> 100 µM
same,TGI,NCI-H522 lung,> 100 µM
same,GI50,HCT-15 colon,> 100 µM
same,TGI,HCT-15 colon,> 100 µM
same,TGI,CCRF-CEM leukemia,> 100 µM
same,TGI,RXF-631 renal,> 100 µM
same,GI50,KM12 colon,> 100 µM
same,TGI,KM12 colon,> 100 µM
same,TGI,OVCAR-8 ovarian,> 100 µM
same,GI50,M19-MEL melanoma,> 100 µM
same,TGI,M19-MEL melanoma,> 100 µM
same,TGI,SF-295 CNS,> 100 µM
same,GI50,HT29 colon,> 100 µM
same,TGI,HT29 colon,> 100 µM
same,TGI,EKVX NSCLC,> 100 µM
same,GI50,UO-31 renal,> 100 µM
same,TGI,UO-31 renal,> 100 µM
same,TGI,HOP-92 NSCLC,63 µM
same,TGI,M14 melanoma,> 100 µM
same,GI50,OVCAR-3 ovarian,> 100 µM
same,TGI,OVCAR-3 ovarian,> 100 µM
same,TGI,HOP-62 NSCLC,> 100 µM
same,TGI,SNB-19 CNS,> 100 µM
same,TGI,SK-OV-3 ovarian,60.5 µM
same,GI50,MOLT-4 leukemia,> 100 µM
same,TGI,MOLT-4 leukemia,> 100 µM
same,TGI,DMS 273 small cell lung,> 100 µM
same,TGI,LOX IMVI melanoma,> 100 µM
same,TGI,HOP-18 NSCLC,> 100 µM
same,GI50,IGROV1 ovarian,> 100 µM
same,TGI,IGROV1 ovarian,> 100 µM
COc1ccc(C(=O)OC2C=COC(C)C2OC(=O)c2ccc(OC)cc2)cc1 (configuration not stated),TGI,UACC-257 melanoma,> 72.4 µM
same,TGI,RPMI-8226 leukemia,47.2 µM
same,TGI,HCC-2998 colon,> 100 µM
same,TGI,786-0 renal,> 86.6 µM
same,TGI,UACC-62 melanoma,37.7 µM
same,TGI,HCT-116 colon,21.8 µM
same,TGI,TK-10 renal,> 100 µM
same,TGI,OVCAR-5 ovarian,> 100 µM
same,TGI,SF-539 CNS,33.6 µM
same,TGI,SN12C renal,> 64.5 µM
same,TGI,OVCAR-4 ovarian,> 63.2 µM
same,TGI,COLO 205 colon,> 100 µM
same,TGI,XF 498 CNS,> 61.8 µM
same,TGI,ACHN renal,> 100 µM
same,TGI,RXF 393 renal,20.9 µM
same,TGI,NCI-H460 lung,> 100 µM
same,TGI,SF-268 CNS,44.7 µM
same,TGI,A549 NSCLC,> 100 µM
same,TGI,SK-MEL-5 melanoma,32.1 µM
same,TGI,CAKI-1 renal,> 100 µM
same,TGI,DLD-1 colon,> 52.8 µM
same,TGI,A498 renal,> 100 µM
same,TGI,NCI-H23 lung,36.1 µM
same,TGI,SW-620 colon,35.1 µM
same,TGI,SK-MEL-28 melanoma,33.2 µM
same,TGI,SNB-75 CNS,51.7 µM
same,TGI,K-562 leukemia,63.9 µM
same,TGI,LXFL 529 NSCLC,28.1 µM
same,TGI,HL-60(TB) leukemia,38 µM
same,TGI,MALME-3M melanoma,> 47.1 µM
same,TGI,SK-MEL-2 melanoma,43.2 µM
same,TGI,SNB-78 CNS,> 100 µM
same,TGI,DMS 114 small cell lung,37.1 µM
same,TGI,U251 CNS,97.9 µM
same,TGI,NCI-H226 lung,> 100 µM
same,TGI,KM20L2 colon,> 77.1 µM
same,TGI,SR leukemia,61.9 µM
same,TGI,NCI-H522 lung,30.6 µM
same,TGI,HCT-15 colon,33 µM
same,TGI,CCRF-CEM leukemia,52.4 µM
same,TGI,RXF-631 renal,81.3 µM
same,TGI,KM12 colon,40.2 µM
same,TGI,OVCAR-8 ovarian,> 73.7 µM
same,TGI,M19-MEL melanoma,> 100 µM
same,TGI,SF-295 CNS,> 100 µM
same,TGI,HT29 colon,62.4 µM
same,TGI,EKVX NSCLC,> 100 µM
same,TGI,UO-31 renal,> 100 µM
same,TGI,HOP-92 NSCLC,37.1 µM
same,TGI,M14 melanoma,35.9 µM
same,TGI,OVCAR-3 ovarian,32.3 µM
same,TGI,HOP-62 NSCLC,> 100 µM
same,TGI,SNB-19 CNS,> 100 µM
same,TGI,SK-OV-3 ovarian,> 100 µM
same,TGI,MOLT-4 leukemia,56 µM
same,TGI,DMS 273 small cell lung,73.6 µM
same,TGI,LOX IMVI melanoma,29.8 µM
same,TGI,HOP-18 NSCLC,> 61.1 µM
same,TGI,IGROV1 ovarian,> 83.6 µM
